In patent publication US20230233736A1, “ANTIMICROBIAL FORMULATIONS COMPRISING SILICONE” (AMICOAT AS, priority 2020, published 2023):
≈ marks a conversion by molar mass, not a printed value.

Columns and labels:
[1] = system: Candida (Issatchenkia) krusei
Enterococcus faecalis = format: cell-based; conditions: vancomycin-resistant (VanB) clinical isolate
Text: (§1) Cation-adjusted Mueller-Hinton broth (Oxoid Ltd., Basingstoke, UK and Trek Diagnostic Systems Ltd., East Grinstead, UK) (supplemented with 5% laked horse blood for Streptococcus spp., Corynebacterium jeikeium and Listeria monocytogenes) was used for aerobic bacteria, with an initial inoculum of approximately 10^5 colony-forming units (CFU)/m L.
(§2) To evaluate whether freezing affected the activity of the peptides some MIC determinations were repeated using plates containing freshly-prepared Mueller-Hinton broth.

C. albicans = assay: Antimicrobial assay, Table 5; format: cell-based
Enterococcus gallinarum = assay: MIC microbroth dilution (CLSI); format: cell-based; conditions: vancomycin-resistant (VanC) clinical isolate
Text: as §1

[2] = system: Staphylococcus saprophyticus; assay: MIC microbroth dilution (CLSI); format: cell-based; conditions: antibiotic susceptible clinical isolate
Text: as §1

E. coli = assay: Antimicrobial assay, Table 5; format: cell-based
Clostridium perfringens = conditions: antibiotic-susceptible clinical isolate
[3] = system: Staphylococcus aureus, strain ATCC 25923; conditions: Table 5; strain ATCC 25923
[4] = system: Methicillin resistant Staphylococcus aureus (MRSA) strain ATCC 33591; conditions: Table 5; strain ATCC 33591
[5] = system: Staphylococcus aureus FDA486; assay: Murine skin infection model, topical treatment; format: in vivo, mice
Description: (§3) The skin of mice was infected with Staphylococcus aureus or Streptococcus pyogenes and subsequently given a total of three treatments at three hourly intervals. Three hours after the last treatment, skin biopsies were collected and the number of colony forming units (CFUs) present in the skin sample was determined. Results are shown in FIGS. 1 and 2, expressed as the number of colony forming units per mouse.
In experiment 1 (FIG. 1), compound 2 was applied to the murine skin as part of either a cream or a gel containing 2% (w/w) of compound 2. The same cream or gel without compound 2 was used as a negative control (placebo).
(§4) The skin of mice was infected with Staphylococcus aureus or Streptococcus pyogenes and subsequently given a total of three treatments at three hourly intervals. Three hours after the last treatment, skin biopsies were collected and the number of colony forming units (CFUs) present in the skin sample was determined. Results are shown in FIGS. 3, 4 and 5 expressed as the number of colony forming units per mouse.
In experiment 1 (FIG. 3), compound 7 was applied to the murine skin as part of either a cream or a gel containing 2% (w/w) of compound 7. The same cream or gel without compound 7 was used as a negative control (placebo). Bactroban 2% cream was used as a positive control.
In experiment 3 (FIG. 5), compound 8 was applied in a 2% cream formulation on a Staphylococcus aureus FDA 486 infection in the murine skin infection model. A placebo cream and two known antibacterials, “Fucidin (fucidic acid) ointment 2%” and “Bactroban (mupericin) cream 2%” were used as controls.

[6] = system: Staphylococcus epidermidis; format: cell-based
Text: as §1

[7] = system: Staphylococcus haemolyticus; format: cell-based
Text: as §1

Corynebacterium jeikeium = format: cell-based
Text: as §1

[8] = system: Trichophyton mentagrophytes; assay: MIC microbroth dilution (CLSI); format: cell-based; conditions: G.R. Micro collection
S. pyogenes = assay: Antimicrobial assay, Table 5; format: cell-based
Streptococcus pyogenes [9] = assay: Murine skin infection model, topical treatment; format: in vivo, mice; conditions: FIG. 4, Streptococcus pyogenes CS 301
Description: as §3
In experiment 2 (FIG. 2), compound 2 was applied in two different concentrations, as either a 1% or a 2% gel. A placebo gel and a known antibacterial “bactroban” were used as controls.
as §4
In experiment 2 (FIG. 4), compound 7 was applied in two different concentrations, as either a 1% or a 2% gel. A placebo gel and a known antibacterial “bactroban (mupericin)” were used as controls.

P. aeruginosa = assay: Antimicrobial assay, Table 5; format: cell-based
[10] = system: Methicillin resistant Staphylococcus epidermidis (MRSE) strain ATCC 27626; conditions: Table 5; strain ATCC 27626
Candida tropicalis = assay: MIC microbroth dilution (CLSI); format: cell-based; conditions: ATCC750 - reference strain
Cryptococcus neoformans = assay: MIC microbroth dilution (CLSI); format: cell-based; conditions: G.R. Micro collection
Aspergillus niger = assay: MIC microbroth dilution (CLSI); format: cell-based; conditions: G.R. Micro collection
Staphylococcus aureus = format: cell-based
Text: as §1, §2

[11] = system: Stenotrophomonas maltophilia; assay: MIC microbroth dilution (CLSI); format: cell-based; conditions: antibiotic-susceptible clinical isolate
Text: as §1

Salmonella sp = assay: MIC microbroth dilution (CLSI); format: cell-based
Text: as §1

Listeria monocytogenes = assay: MIC microbroth dilution (CLSI); format: cell-based; conditions: antibiotic-susceptible clinical isolate
Text: as §1

Shigella sp = assay: MIC microbroth dilution (CLSI); format: cell-based; conditions: antibiotic-susceptible clinical isolate
Text: as §1

Microsporum canis = assay: MIC microbroth dilution (CLSI); format: cell-based; conditions: G.R. Micro collection
Streptococcus pyogenes [12] = format: cell-based
Text: as §1

Enterococcus faecium = format: cell-based
Text: as §1

Group G Streptococcus = format: cell-based
Text: as §1

Klebsiella aerogenes = format: cell-based
Text: as §1

Streptococcus agalactiae = format: cell-based
Text: as §1

Enterobacter sp = format: cell-based
Text: as §1

Morganella morganii = format: cell-based
Text: as §1

Propionibacterium acnes = assay: MIC microbroth dilution (CLSI); format: cell-based
Description: Supplemented Brucella broth (SBB) was used for the anaerobic strains with an inoculum of approximately 10^6 CFU/mL. SBB is a broth consisting of 1% peptone, 0.5% ‘Lab-lemco’, 1% glucose and 0.5% sodium chloride supplemented with 5 μg/L haemin and 1 μg/L vitamin K (both obtained from Sigma Aldrich Ltd.) Yeast and filamentous fungal MIC were performed in MOPS buffered RPMI 1640 medium (MOPS buffer obtained from Sigma Aldrich Ltd., RPMI 1640 obtained from Invitrogen Ltd, Paisley, Scotland). The yeast inocula were in the range 7.5×10^2-4×10^3 CFU/mL and the filamentous fungi approximately 8×10^3-1×10^5 CFU/mL
MICs were determined as described in Example 2.

[13] = system: Trichophyton interdigitale; assay: MIC microbroth dilution (CLSI); format: cell-based; conditions: G.R. Micro collection
[14] = antibiotic-susceptible clinical isolate

CC(C)NC(=O)[C@H](CCCNC(=N)N)NC(=O)[C@H](Cc1c(C(C)(C)C)[nH]c2c(C(C)(C)C)cc(C(C)(C)C)cc12)NC(=O)[C@@H](N)CCCNC(=N)N [Compound 7]
MIC [1]: 8 µg/mL (≈ 11 µM) | MIC (Enterococcus faecalis): ≥128 µg/mL | C. albicans (C. albicans): 25 mg/L | MIC (Enterococcus gallinarum): 8 µg/mL (≈ 11 µM) | MIC [2]: 2 µg/mL (≈ 2.75 µM) | E. coli (E. coli): 7 mg/L | MIC (Clostridium perfringens): ≥128 µg/mL | S. aureus [3]: <2 mg/L | MRSA [4]: <2 mg/L | number of colony forming units (CFU) in skin biopsy ([5]; FIG. 3, cream or gel 2% (w/w), three treatments, compared to placebo): number of CFUs was reduced | MIC [6]: 4 µg/mL (≈ 5.51 µM) | MIC [7]: 4 µg/mL (≈ 5.51 µM) | MIC (Corynebacterium jeikeium): 8 µg/mL (≈ 11 µM) | MIC [8]: 8 µg/mL (≈ 11 µM) | S. pyogenes (S. pyogenes): <2 mg/L | number of CFUs, 2% gel compared with 1% gel (Streptococcus pyogenes [9]): more effective than the gel containing only 1% of compound 7 | number of colony forming units (CFU) in skin biopsy (Streptococcus pyogenes [9]; 1% or 2% gel): more effective at reducing the number of CFUs from a Streptococcus pyogenes CS 301 infection than the placebo gel or the bactroban | P. aeruginosa (P. aeruginosa): 7 mg/L | MRSE [10]: <2 mg/L | MIC (Candida tropicalis): 4 µg/mL (≈ 5.51 µM) | MIC (Cryptococcus neoformans): 8 µg/mL (≈ 11 µM)

CCCCCCNC(=O)[C@H](CCCNC(=N)N)NC(=O)[C@H](Cc1c(C(C)(C)C)[nH]c2c(C(C)(C)C)cc(C(C)(C)C)cc12)NC(=O)[C@@H](N)CCCNC(=N)N [Compound 8]
MIC (Aspergillus niger): 4 µg/mL (≈ 5.21 µM) | MIC (Staphylococcus aureus): 4 µg/mL (≈ 5.21 µM) | C. albicans (C. albicans): 5 mg/L | MIC (Enterococcus gallinarum): 4 µg/mL (≈ 5.21 µM) | MIC [11]: 4 µg/mL (≈ 5.21 µM) | MIC (Salmonella sp; [14]): 8 µg/mL (≈ 10.4 µM) | MIC (Salmonella sp; multi-drug resistant clinical isolate): 8 µg/mL (≈ 10.4 µM) | MIC (Listeria monocytogenes): 8 µg/mL (≈ 10.4 µM) | MIC [2]: 0.5 µg/mL (≈ 0.651 µM) | MIC (Shigella sp): 4 µg/mL (≈ 5.21 µM) | E. coli (E. coli): 5 mg/L | MIC (Candida parapsilosis): 8 µg/mL (≈ 10.4 µM) | MIC (Microsporum canis): 4 µg/mL (≈ 5.21 µM) | S. aureus [3]: 2 mg/L | MRSA [4]: 2 mg/L | number of colony forming units (CFU) in skin biopsy ([5]; FIG. 5, 2% cream formulation): more effective at reducing the number of CFUs than the placebo and fucidin or bactroban | MIC (Streptococcus pyogenes [12]): 8 µg/mL (≈ 10.4 µM) | MIC (Enterococcus faecium): 4 µg/mL (≈ 5.21 µM) | MIC (Group G Streptococcus): 8 µg/mL (≈ 10.4 µM) | MIC (Klebsiella aerogenes): 8 µg/mL (≈ 10.4 µM) | MIC [7]: 4 µg/mL (≈ 5.21 µM) | MIC (Streptococcus agalactiae): 8 µg/mL (≈ 10.4 µM) | MIC (Enterobacter sp): 8 µg/mL (≈ 10.4 µM) | MIC (Morganella morganii): 8 µg/mL (≈ 10.4 µM) | MIC [8]: 4 µg/mL (≈ 5.21 µM) | S. pyogenes (S. pyogenes): 2 mg/L | P. aeruginosa (P. aeruginosa): 5 mg/L | MIC (Propionibacterium acnes; antibiotic-resistant clinical isolate): 2 µg/mL (≈ 2.6 µM) | MIC (Propionibacterium acnes; [14]): 4 µg/mL (≈ 5.21 µM) | MRSE [10]: <1 mg/L | MIC (Candida tropicalis): 4 µg/mL (≈ 5.21 µM) | MIC [13]: 4 µg/mL (≈ 5.21 µM) | MIC (Cryptococcus neoformans): 2 µg/mL (≈ 2.6 µM)
